Patent US11591333B2, “Substituted pyrrolo[2,3-d]pyrimidines as janus kinase inhibitors” (CINKATE PHARM TECH (SHANGHAI) CO.,LTD., priority 2016, dated 2023)

What was measured:
JAK2/JAK1 = assay: JAK enzyme activity inhibition, JAK2 versus JAK1 selectivity; type: biochemical; settings: ratio of JAK2 IC50 to JAK1 IC50
Procedure: (§1) The tested compounds were dissolved in DMSO to provide a 10 mM mother solution. The compound was diluted to 1 mM in DMSO before use, and was gradient diluted by 3 folds to altogether 11 concentrations. After the buffer was prepared, JAK1, JAK2, JAK3 and the substrate were mixed with pre-diluted compounds in different concentrations, and allowed to stand at room temperature for 30 minutes, while each concentration was duplicated for twice. ATP was added and reacted at room temperature for 90 minutes, and antibody was added for detection after the reaction was completed.

JAK3/JAK1 = assay: JAK enzyme activity inhibition, JAK3 versus JAK1 selectivity; type: biochemical; settings: ratio of JAK3 IC50 to JAK1 IC50
Procedure: as §1

mouse spleen cells [1] = assay: Mitogen ConA-induced mouse spleen cell proliferation (CCK8); type: cell-based; settings: for EC50: mouse spleen cells, ConA as stimulus, read-out: Inhibition activity (EC50), ConA induction; for concentration at which inhibition of lymphocyte proliferation began: ConA as the stimuli; for inhibition to the non-specific immunosuppression induced by mitogen: in words, compared with specific immunity
Procedure: […] 5*10^5/well, with or without 50 uL of ConA at a concentration of 2.5 ug/uL as well as 50 uL inhibitors at a different concentration, while the negative control wells were supplemented with 50 uL of complete 1640 medium. After 48 hours of culture, the cell culture supernatant was collected for 100 uL/well for subsequent ELISA, and 10 uL/well of CCK8 reagent was added to detect the cell proliferation. The proliferation of immune cells was microscopic observed in each group.
[…] mouse spleen cells were adjusted to a cell concentration of 5*10^6/mL in complete 1640 medium, […], i.e., 5*10^5/well, […], as well as 50 uL of different concentrations of inhibitor (compound 1-6) while negative control well was supplemented with 50 uL of complete 1640 medium. […] The proliferation of immune cells was microscopic observed in each group, and the EC50 value was calculated.

mouse spleen cells [2] = assay: CD3/CD28 antibody-induced mouse spleen cell proliferation (CCK8); type: cell-based; settings: for EC50: mouse spleen cells, CD3/CD28 antibodies as stimulus, read-out: Inhibition activity (EC50), CD3/CD28; for concentration at which inhibition of lymphocyte proliferation began: Anti-CD3/CD28 as the stimuli

**Q.** For `C[C@@H]1CCN(C(=O)CC#N)C[C@@H]1N(C)c1ncnc2[nH]ccc12` [Tofatinib, reference compound], which “Selectivity fold JAK2/JAK1 IC50 ratio” value (JAK2/JAK1) is on record?
**A.** 2 fold

**Q.** And the “Selectivity fold JAK3/JAK1 IC50 ratio” value (JAK3/JAK1)?
**A.** <1 fold

**Q.** What does the source list for `C/C(O)=C(\C#N)C(=O)Nc1ccc(C(F)(F)F)cc1` [Compound A771726, A771726, reference compound]?
**A.** EC50 (mouse spleen cells [1]): > 200 µM; EC50 (mouse spleen cells [2]): > 200 µM

**Q.** Which “Selectivity fold JAK2/JAK1 IC50 ratio” value (JAK2/JAK1) does the source give for “5-methyl-isoxazole-{4-methyl-(7H-pyrrolo[2,3-d]pyrimidin-4-yl)-amino]-cyclohex yl}-amine [Compound 3]” here?
**A.** >10 fold

**Q.** What about the “Selectivity fold JAK3/JAK1 IC50 ratio” value (JAK3/JAK1) of the same compound?
**A.** >10 fold

**Q.** What about the “concentration at which inhibition of lymphocyte proliferation began” value (“concentration at which inhibition” below) (mouse spleen cells [1]) of the same compound?
**A.** 10 µM

**Q.** And the “inhibition to the non-specific immunosuppression induced by mitogen” value (mouse spleen cells [1])?
**A.** weak

**Q.** What about the EC50 (mouse spleen cells [1]) of the same compound?
**A.** 90.7 µM

**Q.** What about the “concentration at which inhibition” value (mouse spleen cells [2]) of the same compound?
**A.** 10 µM

**Q.** What about the EC50 (mouse spleen cells [2]) of the same compound?
**A.** 65.7 µM

**Q.** Which results are given for `CN(c1ccc(N)cc1)c1ncnc2[nH]ccc12` [Compound 1, N-Methyl-N-(7H-pyrrolo[2,3-d]pyrimidin-4-yl)phenyl-1,4-diamine]?
**A.** Selectivity fold JAK2/JAK1 IC50 ratio (JAK2/JAK1): 7 fold; Selectivity fold JAK3/JAK1 IC50 ratio (JAK3/JAK1): 2 fold; concentration at which inhibition of lymphocyte proliferation began (mouse spleen cells [1]): 10 µM; inhibition to the non-specific immunosuppression induced by mitogen (mouse spleen cells [1]): weak; EC50 (mouse spleen cells [1]): 53.9 µM; concentration at which inhibition of lymphocyte proliferation began (mouse spleen cells [2]): 10 µM; EC50 (mouse spleen cells [2]): 22.7 µM

**Q.** Which results are given for “2-cyano-3-hydroxy-2-butene-{4-[methyl-(7H-pyrrolo[2,3-d]pyrimidin-4-yl)-amino]-cyclohexyl]-amide [Compound 5]”?
**A.** Selectivity fold JAK2/JAK1 IC50 ratio (JAK2/JAK1): >10 fold; Selectivity fold JAK3/JAK1 IC50 ratio (JAK3/JAK1): >10 fold; EC50 (mouse spleen cells [1]): > 200 µM; EC50 (mouse spleen cells [2]): > 100 µM

**Q.** Which “Selectivity fold JAK2/JAK1 IC50 ratio” value (JAK2/JAK1) does the source give for “2-cyano-3-hydroxy-2-butene-{4-[methyl-(7H-pyrrolo[2,3-d]pyrimidin-4-yl)-amino]-phenyl]-amide [Compound 4]” here?
**A.** 7 fold

**Q.** What about the “Selectivity fold JAK3/JAK1 IC50 ratio” value (JAK3/JAK1) of the same compound?
**A.** 5 fold

**Q.** And the “concentration at which inhibition” value (mouse spleen cells [1])?
**A.** 100 µM

**Q.** What about the EC50 (mouse spleen cells [1]) of the same compound?
**A.** 61.2 µM

**Q.** And the “concentration at which inhibition” value (mouse spleen cells [2])?
**A.** 50 µM

**Q.** And the EC50 (mouse spleen cells [2])?
**A.** 30.9 µM

**Q.** For `Cc1oncc1C(=O)Nc1ccc(N(C)c2ncnc3[nH]ccc23)cc1` [Compound 2], which “Selectivity fold JAK2/JAK1 IC50 ratio” value (JAK2/JAK1) is on record?
**A.** >10 fold

**Q.** And the “Selectivity fold JAK3/JAK1 IC50 ratio” value (JAK3/JAK1)?
**A.** >10 fold

**Q.** What about the “concentration at which inhibition” value (mouse spleen cells [1]) of the same compound?
**A.** 10 µM

**Q.** And the EC50 (mouse spleen cells [1])?
**A.** 40.3 µM

**Q.** And the “concentration at which inhibition” value (mouse spleen cells [2])?
**A.** 50 µM

**Q.** What about the EC50 (mouse spleen cells [2]) of the same compound?
**A.** 15.1 µM
